Tested on: wheat
Experiment: Improvement of plant height in wheat (greenhouse pot trial, Use Example H-2)
Format: in vivo
Conditions: wheat cv. J B Asano, 14 days at 20° C., % compared to untreated control (100 = 13.9 cm), pyraclostrobin 5 g ai/100 kg seeds as seed treatment, B. simplex broth 10 ml per seed as drench
Experimental: Pyraclostrobin was applied as commercial seed treatment formulation STAMINA (200 g/L a.i., BASF SE, Ludwigshafen, Germany).
In pot trials in Limburgerhof greenhouses, Bacillus simplex ABU 288 was tested in wheat and maize as solo products and in combination with pyraclostrobin to show effects on plant height. The application of the pyraclostrobin was done as seed treatment and the seeds were treated in the BASF Seed Solutions Technology Center (SSTC) Limburgerhof using a batch lab treater. The respective amounts of seeds was placed in the bowl of the treater and the slurry was dosed on the spinning disk.
The bacterials were grown in shake flasks and used as fermentation broth with a CFU of at least 1×10^12 per ml. This broth was added as a drench solution directly adjacent to the seeds with 10 ml for each seed kernel which makes 50 ml per pot.
The trial was sown in 8 cm pots and a mix of peat substrate and sand (ratio 1:4) was used as a substrate. […]
For the assessment, the plant height from all plants was measured in cm. […]
The expected relative plant height of active compound combinations were determined using Colby's formula (Colby, S. R. “Calculating synergistic and antagonistic responses of herbicide combinations”, Weeds 15, pp. 20-22, 1967) and compared with the observed efficacies. […]

pyraclostrobin
Observed relative plant height: 99.4%

Reference: patent US20150313241A1, “Pesticidal Mixtures” (BASF Corporation, priority 2012, published 2015)
